The text below walks through data of PubChem BioAssay AID1259407 (Chemical Carcinogenesis Research Information System (CCRIS), 2018).

In the data set the test system is CCRIS mutagenicity, Ames/micronucleus/aberration tests. Nature of the data set: CCRIS mutagenicity studies.
Where [1] appears, read: Test System: AMES SALMONELLA TYPHIMURIUM, Strain/Indicator: TA98(NR), Metabolic Activation: NONE, Method: STANDARD PLATE.
Setting [2] is: Test System: AMES SALMONELLA TYPHIMURIUM, Strain/Indicator: TA98, Metabolic Activation: NONE, Method: PREINCUBATION
Where [3] appears, read: Test System: AMES SALMONELLA TYPHIMURIUM, Strain/Indicator: TA100, Metabolic Activation: NONE, Method: PREINCUBATION
Where [4] appears, read: Test System: AMES SALMONELLA TYPHIMURIUM, Strain/Indicator: YG1021, Metabolic Activation: NONE, Method: STANDARD PLATE.
[5] abbreviates: Test System: AMES SALMONELLA TYPHIMURIUM, Strain/Indicator: YG1024, Metabolic Activation: NONE, Method: STANDARD PLATE.
The mark [6] stands for this setting: Test System: AMES SALMONELLA TYPHIMURIUM, Strain/Indicator: TA98, Metabolic Activation: NONE, Method: STANDARD PLATE.
The mark [7] stands for this setting: Test System: AMES SALMONELLA TYPHIMURIUM, Strain/Indicator: TA98, Metabolic Activation: RAT, LIVER, S-9, AROCLOR 1254, Method: STANDARD PLATE.
Where [8] appears, read: Test System: AMES SALMONELLA TYPHIMURIUM, Strain/Indicator: TA100, Metabolic Activation: NONE, Method: STANDARD PLATE.
[9] abbreviates: Test System: AMES SALMONELLA TYPHIMURIUM, Strain/Indicator: TA100, Metabolic Activation: RAT, LIVER, S-9, AROCLOR 1254, Method: STANDARD PLATE.
Where [10] appears, read: Test System: AMES SALMONELLA TYPHIMURIUM, Strain/Indicator: TA1535, Metabolic Activation: NONE, Method: STANDARD PLATE.
The mark [11] stands for this setting: Test System: AMES SALMONELLA TYPHIMURIUM, Strain/Indicator: TA1535, Metabolic Activation: RAT, LIVER, S-9, AROCLOR 1254, Method: STANDARD PLATE.
[12] abbreviates: Test System: AMES SALMONELLA TYPHIMURIUM, Strain/Indicator: TA1537, Metabolic Activation: NONE, Method: STANDARD PLATE.
[13] abbreviates: Test System: AMES SALMONELLA TYPHIMURIUM, Strain/Indicator: TA1537, Metabolic Activation: RAT, LIVER, S-9, AROCLOR 1254, Method: STANDARD PLATE.

SMILES strings stand for the structures. The source made the active and inactive calls. How the calls were made is not given here.

For `Nc1ccc(Cl)cc1[N+](=O)[O-]`, the mutagenic call by setting is: (End Point: IN VITRO CHROMOSOMAL ABERRATIONS, Test System: CHINESE HAMSTER OVARY CELLS, Metabolic Activation: NONE) “inactive; negative; precipitation occurred at 252 ug/ml”; (End Point: IN VITRO CHROMOSOMAL ABERRATIONS, Test System: CHINESE HAMSTER OVARY CELLS, Metabolic Activation: RAT, LIVER, S-9, AROCLOR 1254) “active; positive; precipitation occurred at all doses”; under setting [1], “inactive; negative”; under setting [2], “inactive; negative”; (Test System: AMES SALMONELLA TYPHIMURIUM, Strain/Indicator: TA98, Metabolic Activation: RAT, LIVER, S-9, KANECHLOR 500, Method: PREINCUBATION) “active; positive”; under setting [3], “inactive; negative”. Besides, the mutagenic call runs as follows: (Test System: AMES SALMONELLA TYPHIMURIUM, Strain/Indicator: TA1538, Metabolic Activation: NONE, Method: STANDARD PLATE) “active; positive”; (Test System: AMES SALMONELLA TYPHIMURIUM, Strain/Indicator: TA1538, Metabolic Activation: RAT, LIVER, S-9, AROCLOR 1254, Method: STANDARD PLATE) “active; positive”; (Test System: AMES SALMONELLA TYPHIMURIUM, Strain/Indicator: YG1020, Metabolic Activation: NONE, Method: STANDARD PLATE) “active; positive”; under setting [4], “active; positive”; under setting [5], “active; positive”.

As for `O=[N+]([O-])c1ccc(CO)c([N+](=O)[O-])c1`, the mutagenic call was “active; positive” under setting [2]; “active; positive” (Test System: AMES SALMONELLA TYPHIMURIUM, Strain/Indicator: TA98, Metabolic Activation: RAT, LIVER, S-9, AROCLOR, Method: PREINCUBATION); “active; positive” (Test System: AMES SALMONELLA TYPHIMURIUM, Strain/Indicator: TA98, Metabolic Activation: RAT, LIVER, S-9, PHENOBARBITAL AND 5,6-BENZOFLAVONE, Method: PREINCUBATION); “active; positive” under setting [3]; “active; positive” (Test System: AMES SALMONELLA TYPHIMURIUM, Strain/Indicator: TA100, Metabolic Activation: RAT, LIVER, S-9, PHENOBARBITAL AND 5,6-BENZOFLAVONE, Method: PREINCUBATION).

Consider `COC(=O)C(/C=C(C)/C=C(C)/C=C/C=C(\C)C(=O)[C@]12O[C@H]1[C@@](O)(CCO)NC2=O)=C/CO`, for which, under setting [3], the mutagenic call is “active; positive”.

Turning to `CC(C)NNC(=O)c1ccncc1`, the mutagenic call was “inactive; negative” under setting [6]; “inactive; negative” under setting [7]; “inactive; negative” under setting [8]; “inactive; negative” under setting [9]; “inactive; negative” under setting [10]; “inactive; negative” under setting [11]. Also, the mutagenic call runs as follows: under setting [12], “inactive; negative”; under setting [13], “inactive; negative”.

`C[C@H]1[C@H](C)CC[C@]2(C(=O)O[C@@H]3O[C@H](CO[C@@H]4O[C@H](CO)[C@@H](O[C@@H]5O[C@@H](C)[C@H](O)[C@@H](O)[C@H]5O)[C@H](O)[C@H]4O)[C@@H](O)[C@H](O)[C@H]3O)CC[C@]3(C)C(=CC[C@@H]4[C@@]5(C)C[C@@H](O)[C@H](O)[C@@](C)(CO)[C@@H]5CC[C@]43C)[C@H]12`: the mutagenic call was “inactive; negative” (End Point: IN VITRO CHROMOSOMAL ABERRATIONS, Test System: CHL CELLS, Metabolic Activation: NONE); “inactive; negative” (End Point: IN VITRO CHROMOSOMAL ABERRATIONS, Test System: CHL CELLS, Metabolic Activation: RAT, LIVER, S-9, AROCLOR 1254); “inactive; negative” (End Point: IN VIVO MICRONUCLEUS, Test System: BONE MARROW, Species: MOUSE, Strain/Sex: ICR, Route: GAVAGE); “inactive; negative” under setting [6]; “inactive; negative” under setting [7]; “inactive; negative” under setting [8]. For the same molecule, the mutagenic call was “inactive; negative” under setting [9]; “inactive; negative” under setting [10]; “inactive; negative” under setting [11]; “inactive; negative” under setting [12]; “inactive; negative” under setting [13]; “inactive; negative” (Test System: E. COLI, Strain/Indicator: WP2UVRA, Metabolic Activation: RAT, LIVER, S-9, AROCLOR 1254, Method: STANDARD PLATE). Besides, the mutagenic call (Test System: E.COLI, Strain/Indicator: WP2UVRA, Metabolic Activation: NONE, Method: STANDARD PLATE) is “inactive; negative”.

On to `CCOC(=O)Nc1cccc2c1[nH]c1ccncc12`, for which the mutagenic call (Test System: AMES SALMONELLA TYPHIMURIUM, Strain/Indicator: TA1537, Metabolic Activation: NONE, Method: PREINCUBATION) was “inactive; negative” and the mutagenic call (Test System: AMES SALMONELLA TYPHIMURIUM, Strain/Indicator: TA1537, Metabolic Activation: RAT, LIVER, S-9, PHENOBARBITAL, Method: PREINCUBATION) was “inactive; negative”.

Take `Cc1ccc([N+](=O)[O-])c2c(NCCCN(C)C)c3ccccc3nc12`: the mutagenic call reads like this: under setting [6], “active; positive”; under setting [8], “active; positive”.

On to `c1ccc2c(c1)ccc1nc3c(ccc4ccccc43)cc12`, for which, under “Test System: AMES SALMONELLA TYPHIMURIUM, Strain/Indicator: TA100, Metabolic Activation: RAT, LIVER, S-9, PHENOBARBITAL AND 5,6-BENZOFLAVONE, Method: STANDARD PLATE”, the mutagenic call is “active; positive”.

In the case of `O=[N+]([O-])c1ccc2c(c1)c([N+](=O)[O-])cc1ccccc12`, the mutagenic call is “active; positive” (Test System: AMES SALMONELLA TYPHIMURIUM, Strain/Indicator: TA98(1,8-DNP6), Metabolic Activation: NONE, Method: STANDARD PLATE); “active; positive” under setting [1]; “active; positive” under setting [6]; “active; positive” under setting [8]; “active; positive” under setting [4]; “active; positive” under setting [5]. Also, the mutagenic call by setting is: (Test System: AMES SALMONELLA TYPHIMURIUM, Strain/Indicator: YG1026, Metabolic Activation: NONE, Method: STANDARD PLATE) “active; positive”; (Test System: AMES SALMONELLA TYPHIMURIUM, Strain/Indicator: YG1029, Metabolic Activation: NONE, Method: STANDARD PLATE) “active; positive”.
